In brackets after ≈: the same amount, converted by molar mass. Where two headings read alike, the source gives them in different places.
Key:
Test in all cases: Minimum inhibitory concentration
Format in all cases: cell-based
[1] = test system: Lactobacillus casei ATCC 334; conditions: Lacticaseibacillus casei
From the text: (§1) That is, the amount in parts-per-million (ppm) required to inhibit the growth of common bacterial pathogens.

[2] = test system: Actinomyces viscosus ATCC 43137
From the text: as §1

[3] = test system: Streptococcus oralis ATCC 35037
From the text: as §1

[4] = ATCC334, Lactobacillus casei ATCC 334, solvent ethanol or DMSO per sample, read-out: minimum inhibitory concentration
[5] = ATCC43137, Actinomyces viscosus ATCC 43137, solvent ethanol or DMSO per sample, read-out: minimum inhibitory concentration
[6] = ATCC35037, Streptococcus oralis ATCC 35037, solvent ethanol or DMSO per sample, read-out: minimum inhibitory concentration

Row | Compound | MIC [1, 4] [µg/mL] | MIC [2, 5] [µg/mL] | MIC [3, 6] [µg/mL] | MIC ([1]; ATCC334, read-out: minimum inhibitory concentration) [µg/mL] | MIC ([2]; Actinomyces viscosus, ATCC43137, read-out: minimum inhibitory concentration) [µg/mL] | MIC ([3]; Streptococcus oralis, ATCC35037, read-out: minimum inhibitory concentration) [µg/mL]
1 | C=CCc1ccc(O)c(OC)c1 [Eugenol, 4-allyl-2-methoxyphenol] | 250 (≈ 1520 µM) | 250 (≈ 1520 µM) | 250 (≈ 1520 µM) |  |  | 
2 | CC1(C)CC[C@]2(C(=O)O)CC[C@]3(C)C(=CC[C@@H]4[C@@]5(C)CC[C@H](O)C(C)(C)[C@@H]5CC[C@]43C)[C@@H]2C1 [Oleanic Acid, 3β-hydroxy-olea-12-en-28-oic] | 7.8 (≈ 17.1 µM) | 15.6 (≈ 34.2 µM) | 7.8 (≈ 17.1 µM) |  |  | 
3 | Oc1cc(Cl)ccc1Oc1ccc(Cl)cc1Cl [Triclosan] |  |  |  | 7.8 (≈ 26.9 µM) | 3.9 (≈ 13.5 µM) | 7.8 (≈ 26.9 µM)

— patent publication US10583074B2, “Oral care compositions” (priority 2017, dated 2020)
